According to US6703011B2, “Application of film forming technology to fragrance control release systems; and resultant fragrance control release systems” (International Flavors & Fragrances Inc., priority 1998, dated 2004):
Structures can show the parent of a compound that is named as a salt.

Key:
[1] = vapor pressure of fragrance components
[2] = FRAGRANCE PERMEATION TEST (diffusion cell, weight loss); type: physicochemical; conditions: for permeation rate through hydroxypropyl cellulose / permeation rate through polyvinyl alcohol: 35° C., film thickness about 150 microns; for permeation rate through polyvinyl alcohol: FIG. 5C (98% hydrolyzed polyvinyl acetate)
Text: Referring to FIGS. 4A and 4B, fluid 46 is located in jar 44. Jar 44 has sidearm 45. The fluid 46 reaches fluid level 47. Directly in line with fluid level 47 is membrane 41. The diffusion membrane 41 is held in place with flanges 43 and jar lip 42, using bolts 401a and 401b which secures the flange in place. The sidearm 45 is closed using closure 49. The permeability apparatus is shown using reference numeral 40. The FRAGRANCE PERMEABILITY TEST is based on the use of the apparatus of FIGS. 4A and 4B. The weight of membrane 41 is taken, initially, before being placed within the flange 43 and the jar lip 42. Substance 46 for which the permeability is to be measured is placed into jar 44 to fluid level 47. The apparatus containing fluid 46 remains in place for a fixed period of time. At the end of that period of time, bolts 401a and 401b as well as 401c are loosened, the flange 43 removed and membrane 41 is removed and weighed, thereby gathering sufficient data to determine the permeability of the particular substance 46. The design and development of fragrance controlled release systems is built upon an understanding of the transport mechanisms of aroma chemicals and fragrances through polymers. The ability of the film forming polymers to sustain fragrance release was determined by permeation studies. A special diffusion cell has been developed to measure the steady state permeation of aroma chemicals and fragrances through polymeric films using weight loss. […] The polymeric film is mounted on the diffusion cell and is tightly secured by a glass ring fitted with three screws. […] The diffusant (fragrances, single or mixture of aroma chemicals) is kept in contact with the polymer film throughout the experiment period by filling the diffusion cell arm with the diffusant. The permeation rate of the diffusant is determined by monitoring the changes in the diffusion cell weight. The permeability coefficient, or permeability P, is useful in describing the rate of mass transport through a polymer at steady state. Permeability is related to two basic properties: diffusion and solubility. The permeability coefficient can be expressed by the diffusion coefficient (D) and the solubility coefficient (S). Their relationship is described by the following equation: This value is the actual weight loss that is being measured during our experiments. […] P=DS and the use of neat material (not dilution in a solvent), one can then solve the equation to determine the permeability coefficient using the cell dimension (surface area, A), the thickness of the film (L) and the weight loss data (Q=dM/dt): [formula] The effect of fragrance physical and chemical properties on its permeation rate through the film forming polymers was studied using the experimental setup described, supra. FIG. 5B, described in detail, supra, presents the effect of log10P on the permeation rate of the two model aroma chemicals through hydroxypropyl cellulose. The permeation studies were carried out at 35° C., and the temperature was kept constant within ±0.5 C. throughout the experiment period. […] The aroma chemicals studied, ethyl […] β-pinene, have approximately the same values of vapor pressure, but differ in their solubility in water. Ethyl […] lower value of log10P and thus is more water soluble than β-pinene. The permeation rates on two model aroma chemicals having a high and low log10P through a polyvinyl alcohol, having crystalline and better packed structure, were also studied and are illustrated in FIG. 5C, described in detail, supra. The permeation studies were carried out at 35° C., and the temperature was kept constant within +0.5° C. throughout the experiment period. […] The aroma chemicals studied, ethyl […] β-pinene, have about the same values of vapor pressure, but differ in their solubility in water. Ethyl […] lower value of log10P and thus is more water soluble than β-pinene.

[3] = evaporation rate of aroma chemical without the polymer; type: physicochemical; conditions: 35° C.
Description: The effect of fragrance physical and chemical properties on its permeation rate through the film forming polymers was studied using the experimental setup described, supra. FIG. 5B, described in detail, supra, presents the effect of log10P on the permeation rate of the two model aroma chemicals through hydroxypropyl cellulose. The permeation studies were carried out at 35° C., and the temperature was kept constant within ±0.5 C. throughout the experiment period. The thickness of the films studied was about 150 microns. The aroma chemicals studied, ethyl […] β-pinene, have approximately the same values of vapor pressure, but differ in their solubility in water. Ethyl […] lower value of log10P and thus is more water soluble than β-pinene. The permeation rates on two model aroma chemicals having a high and low log10P through a polyvinyl alcohol, having crystalline and better packed structure, were also studied and are illustrated in FIG. 5C, described in detail, supra. The permeation studies were carried out at 35° C., and the temperature was kept constant within +0.5° C. throughout the experiment period. The thickness of the films studied was about 150 microns. The aroma chemicals studied, ethyl […] β-pinene, have about the same values of vapor pressure, but differ in their solubility in water. Ethyl […] lower value of log10P and thus is more water soluble than β-pinene.

[4] = polymer film material: carboxymethyl cellulose
[5] = polymer film material: polyvinyl alcohol (74% hydrolyzed)
[6] = polymer film material: polyvinyl alcohol (98% hydrolyzed)

Molecule | Vapor Pressure ([1]; at 25° C.) | other results
CC1=CC(C)C(C=O)CC1 (stereo not drawn) | 0.3 mm/Hg | 
CC(=O)O[C@@H]1C[C@H]2CC[C@]1(C)C2(C)C (racemic) [isobornyl acetate] | 0.09 mm/Hg | 
CC(OC=O)C1CCCC(C)(C)C1 (stereo not drawn) [C.P. FORMATE®, the formic acid ester of 1,1-dimethyl-3(1-hydroxyethyl)cyclohexane, reference compound] |  | Permeation ([2]; polymer film material: hydroxypropyl cellulose (molecular weight = 100,000)): 2.5 × 10^−4 mg-mm thickness/cm^2 area - mi; Vapor Pressure ([1]; figure legends, unit inferred): 0.1 mmHg
CC1(C)C2CCC1(C)C(O)C2 (stereo not drawn) [Example 1-borneol, 1-borneol] | 0.02 mm/Hg | 
CC(=O)C1(C)CC2=C(CCCC2(C)C)CC1C (stereo not drawn) [ISO E SUPER ®] | 0.002 mm/Hg | 
CC(C=O)Cc1ccc(C(C)(C)C)cc1 (stereo not drawn) [LILIAL ®] | 0.003 mm/Hg | 
CC(=O)c1cc2c(cc1C)C(C)(C)C(C)CC2(C)C (stereo not drawn) [TONALID ®] | 0.0001 mm/Hg | 
CC(=O)OC1CCC(C(C)(C)C)CC1 (stereo not drawn) [VERTENEX ® HC] | 0.03 mm/Hg | 
C=CCOC(=O)COCCC(C)C [allyl amyl glycolate] | 0.07 mm/Hg | 
CC(=O)OCc1ccccc1 [benzyl acetate] | 0.1 mm/Hg | 
CC12CCC(CC1=O)C2(C)C (stereo not drawn) [camphor] | 0.1 mm/Hg | 
CC/C=C\CCOC(C)=O [cis-3-hexenyl acetate] | 2.0 mm/Hg | 
CC/C=C\CCOC(=O)c1ccccc1O [cis-3-hexenyl salicylate] | 0.0008 mm/Hg | 
CC(C)=CCCC(C)CCO (stereo not drawn) [citronellol] | 0.009 mm/Hg | 
CC(C=O)Cc1ccc(C(C)C)cc1 (stereo not drawn) [cyclamal] | 0.004 mm/Hg | 
C=CC(C)CCCC(C)(C)O (stereo not drawn) [dihydromyrcenol] | 0.09 mm/Hg | 
C/C=C(\C)C(=O)OCC [ethyl tiglate] |  | permeation rate through hydroxypropyl cellulose [2]: exactly the same as its evaporation rate without the polymer; permeation rate through polyvinyl alcohol [2]: about 1.8×10^−4; permeation rate through hydroxypropyl cellulose ([2]; listed as Ethyl tiglate): equal to its evaporation rate; Permeation [2, 4]: 2.8 × 10^−3 mg-mm thickness/cm^2 area - mi; Permeation [2, 5]: 5 × 10^−3 mg-mm thickness/cm^2 area - mi; Permeation [2, 6]: 2 × 10^−3 mg-mm thickness/cm^2 area - mi; overall permeation rate ([2]; through positively charged polymers POLYMER LK and POLYMER LR-400 (FIG. 5I)): 5.8×10^−4; Vapor Pressure ([1]; figure legends, unit inferred): 1.8 mmHg
CCCCCCC(C=O)=Cc1ccccc1 [hexyl cinnamic aldehyde] | 0.0003 mm/Hg | 
C=CC(C)(O)CCC=C(C)C (stereo not drawn) [linalool] | 0.05 mm/Hg | 
C=CC(C)(CCC=C(C)C)OC(C)=O (stereo not drawn) [linalyl acetate] | 0.07 mm/Hg | 
C=CCc1ccc(OC)cc1 [methyl chavicol] | 0.09 mm/Hg | 
CCCCCCCCCC(C)C=O (stereo not drawn) [methyl nonyl acetaldehyde] | 0.009 mm/Hg | 
CCCCCCCC=O [n-octanal] |  | Permeation ([2]; not told): 2.8 × 10^−3 mg-mm thickness/cm^2 area - mi
CC(=O)OC(C)c1ccccc1 (stereo not drawn) [styralyl acetate] | 0.1 mm/Hg | 
CC1=CCC(C(C)(C)O)CC1 (stereo not drawn) [α-terpineol] | 0.02 mm/Hg | 
CC(=O)/C=C/C1=C(C)CCCC1(C)C [β-ionone] | 0.006 mm/Hg | 
OCCc1ccccc1 [β-phenyl ethyl alcohol] | 0.02 mm/Hg | 
C=C1CCC2CC1C2(C)C (stereo not drawn) [β-pinene] |  | permeation rate through hydroxypropyl cellulose [2]: 2.7×10^−4; permeation rate through polyvinyl alcohol [2]: about 1.8×10^−4; Permeation [2, 4]: 2.8 × 10^−3 mg-mm thickness/cm^2 area - mi; Permeation [2, 5]: 2.5 × 10^−3 mg-mm thickness/cm^2 area - mi; Permeation [2, 6]: 2 × 10^−3 mg-mm thickness/cm^2 area - mi; permeation rate ([2]; through POLYMER LK (FIG. 5K, graph 596)): 3.9×10^−5; permeation rate ([2]; through POLYMER LR-400 (FIG. 5K, graph 595)): 7.5×10^−5; evaporation rate without the polymer [3]: about 0.15; Vapor Pressure ([1]; figure legends, unit inferred): 2.2 mmHg
peach aldehyde coeur | 0.002 mm/Hg | 
